Data published in ChEMBL document CHEMBL3046380, “In Vitro and In Vivo Characterization of Alpha-1A Selective Agonists and Their Utility for Stress Incontience” (Med Chem Res, 2004).
Active and inactive are the calls of the source. The calls are words filed in the database; no cut-off is given here.

Key:
[1] = biological target: T1, Alpha-1A adrenergic receptor (Oryctolagus cuniculus) (UniProt O02824); test: (§1) Agonist activity at alpha1A adrenoreceptor in Oryctolagus cuniculus (rabbit) urethra
T1 sequence (whole entry): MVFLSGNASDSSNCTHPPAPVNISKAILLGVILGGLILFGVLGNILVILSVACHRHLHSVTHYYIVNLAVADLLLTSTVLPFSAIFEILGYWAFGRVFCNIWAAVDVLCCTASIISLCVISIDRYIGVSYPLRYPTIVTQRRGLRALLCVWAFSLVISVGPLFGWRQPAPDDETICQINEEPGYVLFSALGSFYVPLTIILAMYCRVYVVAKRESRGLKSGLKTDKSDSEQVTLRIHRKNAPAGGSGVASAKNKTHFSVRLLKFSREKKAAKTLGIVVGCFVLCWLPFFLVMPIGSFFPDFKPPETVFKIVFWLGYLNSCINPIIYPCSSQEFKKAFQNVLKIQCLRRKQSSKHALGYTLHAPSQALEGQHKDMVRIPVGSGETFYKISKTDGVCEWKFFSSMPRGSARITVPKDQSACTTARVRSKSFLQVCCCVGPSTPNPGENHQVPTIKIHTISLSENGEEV

[2] = biological target: T2, Alpha-1B adrenergic receptor (Rattus norvegicus) (UniProt P15823); test: (§2) Agonist activity at alpha1B adrenoreceptor in Rattus norvegicus (rat) spleen
T2 sequence (whole entry): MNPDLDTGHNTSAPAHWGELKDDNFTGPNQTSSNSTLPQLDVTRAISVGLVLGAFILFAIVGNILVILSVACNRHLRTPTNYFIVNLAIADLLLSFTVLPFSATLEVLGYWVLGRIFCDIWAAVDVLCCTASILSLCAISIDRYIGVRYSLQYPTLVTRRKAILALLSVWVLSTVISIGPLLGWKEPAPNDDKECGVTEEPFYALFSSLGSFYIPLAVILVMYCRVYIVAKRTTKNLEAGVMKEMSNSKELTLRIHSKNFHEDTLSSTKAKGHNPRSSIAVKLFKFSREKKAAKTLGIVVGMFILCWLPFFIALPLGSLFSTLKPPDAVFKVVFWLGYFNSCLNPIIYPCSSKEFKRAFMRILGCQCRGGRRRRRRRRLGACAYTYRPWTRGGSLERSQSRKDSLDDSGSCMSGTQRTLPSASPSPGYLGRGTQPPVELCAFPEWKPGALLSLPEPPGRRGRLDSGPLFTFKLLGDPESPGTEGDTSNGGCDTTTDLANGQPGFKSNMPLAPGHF

[3] = biological target: T3, Alpha-1B adrenergic receptor (Mesocricetus auratus, UniProt P18841); test: Binding affinity to Cricetinae (hamster) alpha1B adrenoreceptor by radioligand displacement assay
T3 sequence (P18841 whole entry): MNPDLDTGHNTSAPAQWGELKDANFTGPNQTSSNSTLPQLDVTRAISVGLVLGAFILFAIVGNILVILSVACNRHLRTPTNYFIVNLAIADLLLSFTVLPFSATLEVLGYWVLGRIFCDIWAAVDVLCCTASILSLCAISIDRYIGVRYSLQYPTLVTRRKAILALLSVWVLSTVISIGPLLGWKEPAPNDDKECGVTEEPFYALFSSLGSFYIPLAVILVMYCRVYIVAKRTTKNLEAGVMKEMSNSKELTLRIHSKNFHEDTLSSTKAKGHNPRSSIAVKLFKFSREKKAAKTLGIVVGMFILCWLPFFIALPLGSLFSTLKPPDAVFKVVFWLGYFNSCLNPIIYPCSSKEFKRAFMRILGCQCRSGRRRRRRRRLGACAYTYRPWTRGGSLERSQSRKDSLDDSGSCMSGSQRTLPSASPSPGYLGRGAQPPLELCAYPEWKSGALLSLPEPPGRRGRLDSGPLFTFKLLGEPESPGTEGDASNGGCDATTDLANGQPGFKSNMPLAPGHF

[4] = biological target: T4, Alpha-1D adrenergic receptor (Rattus norvegicus, UniProt P23944); test: Binding affinity to Rattus norvegicus (rat) alpha1D adrenoreceptor by radioligand displacement assay
T4 sequence (P23944 whole entry): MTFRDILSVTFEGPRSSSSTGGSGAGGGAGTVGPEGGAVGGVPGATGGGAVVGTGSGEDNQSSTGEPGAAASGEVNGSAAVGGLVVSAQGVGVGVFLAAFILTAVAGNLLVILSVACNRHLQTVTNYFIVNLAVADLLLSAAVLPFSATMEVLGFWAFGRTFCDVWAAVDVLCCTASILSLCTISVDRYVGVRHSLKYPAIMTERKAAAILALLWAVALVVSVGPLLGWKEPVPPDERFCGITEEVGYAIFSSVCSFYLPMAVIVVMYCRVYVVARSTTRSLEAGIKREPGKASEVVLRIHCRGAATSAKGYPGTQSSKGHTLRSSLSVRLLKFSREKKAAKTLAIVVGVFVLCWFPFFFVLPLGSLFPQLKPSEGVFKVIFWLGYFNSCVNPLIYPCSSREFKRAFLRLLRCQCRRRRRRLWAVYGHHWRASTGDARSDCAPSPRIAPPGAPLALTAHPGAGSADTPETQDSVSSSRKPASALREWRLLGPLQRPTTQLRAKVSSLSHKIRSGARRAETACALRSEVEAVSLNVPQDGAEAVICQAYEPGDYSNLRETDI

[5] = biological target: T5, Alpha-1A adrenergic receptor (Rattus norvegicus, UniProt P43140); test: Binding affinity to alpha1A adrenoreceptor in Rattus norvegicus (rat) submaxillary gland by radioligand displacement assay
T5 sequence (P43140 whole entry): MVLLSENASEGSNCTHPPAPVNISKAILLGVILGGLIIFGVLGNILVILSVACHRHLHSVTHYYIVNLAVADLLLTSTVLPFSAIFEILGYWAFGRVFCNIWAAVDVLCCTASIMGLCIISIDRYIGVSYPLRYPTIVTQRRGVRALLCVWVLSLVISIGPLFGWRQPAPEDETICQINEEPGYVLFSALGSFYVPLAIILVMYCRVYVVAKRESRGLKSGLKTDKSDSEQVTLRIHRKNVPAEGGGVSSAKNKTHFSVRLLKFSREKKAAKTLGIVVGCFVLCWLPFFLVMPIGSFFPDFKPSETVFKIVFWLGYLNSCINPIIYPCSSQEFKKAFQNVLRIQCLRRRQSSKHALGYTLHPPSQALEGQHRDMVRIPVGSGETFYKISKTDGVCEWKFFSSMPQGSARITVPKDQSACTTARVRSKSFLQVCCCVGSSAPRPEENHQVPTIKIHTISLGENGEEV

[6] = biological target: T6, Alpha-1A adrenergic receptor (Oryctolagus cuniculus, UniProt O02824); test: as §1
T6 sequence (O02824 whole entry): T1 sequence (whole entry)

[7] = biological target: T2, Alpha-1B adrenergic receptor (Rattus norvegicus); test: Agonist activity at alpha1B adrenoreceptor in Rattus norvegicus (rat) spleen relative to phenylephrine
[8] = test system: Canis familiaris; test: Pressor activity in Canis lupus familiaris (dog) assessed as increase in mean arterial blood pressure at 100 nmol/kg, iv in presence of idazoxan; format: ADME, organism-based; conditions: in vivo
[9] = biological target: T4, Alpha-1D adrenergic receptor; test: Antagonist activity at alpha1D adrenoreceptor in Rattus norvegicus (rat) aorta assessed as inhibition of phenylephrine-indued contraction; conditions: read-out: pA2 (converted)
[10] = biological target: T7, Alpha-1B adrenergic receptor (Rattus norvegicus, UniProt P15823); test: Antagonist activity at alpha1B adrenoreceptor in Rattus norvegicus (rat) spleen assessed as inhibition of phenylephrine-indued contraction; conditions: read-out: pA2 (converted)
T7 sequence (P15823 whole entry): T2 sequence (whole entry)

[11] = test system: Canis familiaris; test: Pressor activity in Canis lupus familiaris (dog) assessed as increase in mean arterial blood pressure at 100 nmol/kg, iv in presence of prazosin; format: ADME, organism-based; conditions: in vivo
[12] = test system: Canis familiaris; test: Pressor activity in Canis lupus familiaris (dog) assessed as increase in mean arterial blood pressure at 100 nmol/kg, iv; format: ADME, organism-based; conditions: in vivo
[13] = biological target: T1, Alpha-1A adrenergic receptor (Oryctolagus cuniculus); test: Agonist activity at alpha1A adrenoreceptor in Oryctolagus cuniculus (rabbit) urethra relative to phenylephrine
[14] = biological target: T8, Alpha-1D adrenergic receptor (Rattus norvegicus) (UniProt P23944); test: Agonist activity at alpha1D adrenoreceptor in Rattus norvegicus (rat) aorta relative to phenylephrine
T8 sequence (whole entry): T4 sequence (P23944 whole entry)

[15] = biological target: T4, Alpha-1D adrenergic receptor; test: Agonist activity at alpha1D adrenoreceptor in Rattus norvegicus (rat) aorta
[16] = test system: Canis familiaris; test: Selectivity index, ratio of ED20 for change in mean arterial pressure to ED5 for effect on intraurethral pressure in iv dosed Canis lupus familiaris (dog); design: species or system Artery
[17] = biological target: T7, Alpha-1B adrenergic receptor; test: as §2

Cn1cncc1C1CCCc2c(NS(C)(=O)=O)cccc21 (stereo unspecified)
pEC50 [1]: inactive
pEC50 [2]: inactive
Ki [3]: > 10 µM
Ki [4]: > 10 µM
Ki [5]: > 10 µM

O=S(=O)(Nc1cccc2c1CCCC2c1c[nH]cn1)C1CC1 (stereo unspecified)
EC50 [6]: 5.62 µM
pEC50 [2]: inactive
Ki [3]: > 10 µM

NC(=O)Nc1c(O)ccc2c1CCCC2C1=NCCN1 (stereo unspecified)
Ki [3]: 10 µM
Ki [4]: 5.5 µM
Ki [5]: 7.08 µM

CCS(=O)(=O)Nc1cccc2c1CCCC2c1c[nH]c(C)n1 (stereo unspecified)
pEC50 [1]: inactive
pEC50 [2]: inactive
Ki [3]: > 10 µM
Ki [4]: > 10 µM

CCS(=O)(=O)Nc1cccc(Cc2c[nH]cn2)c1
Efficacy [7]: 11%
Activity [8]: Toxic
Kb [9]: 0.661 µM
Kb [10]: 4.07 µM
Activity [11]: Non-toxic
Activity [12]: Toxic

CCS(=O)(=O)Nc1cccc2c1CCCC2c1c[nH]cn1 (stereo unspecified)
pEC50 [2]: inactive

COC(=O)Nc1cccc2c1CCCC2c1c[nH]cn1 (stereo unspecified)
pEC50 [1]: inactive
pEC50 [2]: inactive

CCCS(=O)(=O)Nc1c(O)ccc2c1CCCC2C1=NCCN1 (stereo unspecified)
Ki [3]: 3.09 µM
Ki [4]: 1.86 µM
Ki [5]: 0.776 µM

COC(=O)Nc1c(O)ccc2c1CCCC2C1=NCCN1 (stereo unspecified)
Ki [3]: 10 µM
Ki [4]: 8.51 µM
Ki [5]: 0.288 µM

CS(=O)(=O)Nc1c(O)ccc2c1CCCC2C1=NCCN1 (stereo unspecified)
Efficacy [13]: 88%
Efficacy [14]: 99%

COc1ccc(OC)c(C(O)CN)c1 (stereo unspecified) [DESGLYMIDODRINE]
EC50 [6]: 7.08 µM
EC50 [15]: 1.86 µM
Selectivity Index [16]: 1.3

O=S(=O)(CC(F)(F)F)Nc1cccc2c1CCCC2c1c[nH]cn1 (stereo unspecified)
Efficacy [13]: 64%
pEC50 [2]: inactive
Kb [9]: 27.5 µM
Kb [10]: 42.7 µM
Ki [3]: > 10 µM
Ki [4]: > 10 µM

COc1ccc2c(c1NS(C)(=O)=O)CCCC2C1=NCCN1 (stereo unspecified)
Ki [3]: 3.47 µM
Ki [4]: 1.55 µM
Ki [5]: 0.617 µM

CCS(=O)(=O)Nc1cccc2c1CCC[C@H]2c1c[nH]cn1
EC50 [6]: 0.17 µM
Efficacy [13]: 71%
EC50 [17]: 3.8 µM
Efficacy [7]: 11%
Kb [9]: 7.24 µM
Kb [10]: 13.8 µM
Ki [3]: 1.32 µM
Selectivity Index [16]: 3.3
Ki [4]: 1.07 µM
Ki [5]: 0.0468 µM

O=S(=O)(Nc1c(O)ccc2c1CCCC2C1=NCCN1)c1ccccc1 (stereo unspecified)
Ki [3]: > 3.16 µM
Ki [4]: > 3.16 µM
Ki [5]: > 3.16 µM

CN(c1c(O)ccc2c1CCCC2C1=NCCN1)S(C)(=O)=O (stereo unspecified)
Ki [3]: 15.8 µM
Ki [4]: 18.2 µM
Ki [5]: 5.5 µM

O=S(=O)(Nc1c(O)ccc2c1CCCC2C1=NCCN1)C(F)(F)F (stereo unspecified)
Ki [3]: > 3.16 µM
Ki [4]: > 3.16 µM
Ki [5]: > 3.16 µM

CCCS(=O)(=O)Nc1cccc2c1CCCC2c1c[nH]cn1 (stereo unspecified)
pEC50 [1]: inactive
pEC50 [2]: inactive
Ki [3]: > 10 µM
Ki [4]: > 10 µM

CC(C)S(=O)(=O)Nc1cccc2c1CCCC2c1c[nH]cn1 (stereo unspecified)
EC50 [6]: 6.76 µM
EC50 [17]: 14.1 µM
Efficacy [7]: 8%
Ki [3]: > 10 µM

Cn1cnc(C2CCCc3c(NS(C)(=O)=O)cccc32)c1 (stereo unspecified)
Ki [3]: 1.05 µM
Ki [4]: 3.63 µM

CCS(=O)(=O)Nc1cccc(Cc2c[nH]cn2)c1C
Kb [9]: 5.89 µM
Kb [10]: 15.1 µM

CCS(=O)(=O)Nc1c(O)ccc2c1CCCC2C1=NCCN1 (stereo unspecified)
Ki [3]: 4.27 µM
Ki [4]: 2.19 µM
Ki [5]: 0.0603 µM

Nc1cccc2c1CCCC2c1c[nH]cn1 (stereo unspecified)
EC50 [6]: 0.275 µM
EC50 [17]: 0.977 µM
Ki [5]: 0.126 µM

CC(N)C(O)c1ccccc1 (stereo unspecified) [PHENYLPROPANOLAMINE]
EC50 [6]: 234 µM
EC50 [17]: 282 µM
EC50 [15]: 75.9 µM
Selectivity Index [16]: 0.4

CS(=O)(=O)Nc1cccc2c1CCCCC2c1c[nH]cn1 (stereo unspecified)
pEC50 [2]: inactive
